Laboratory results from patent US8614246B2, “Indole derivatives for treating neurodegenerative diseases” (Centre National de la Recherche Scientifique (CNRS), priority 2009, dated 2013).

Key:
[1] = system: dopaminergic neurons (TH+ neurons) in primary cultures of ventral mesencephalon; assay: Neuroprotection: counting of remaining TH+ neurons in primary cultures of ventral mesencephalon (spontaneous death of dopaminergic neurons); type: cell-based; settings: Product 10 nM, 8 days culture, rat embryo ventral mesencephalon; untreated control = 100
Method: (§1) Dissection. Dissection consists of extracting embryos from the uterus of a rat after fifteen days of gestation. The brain of each embryo is then dissected under magnifying binoculars in order to extract the ventral mesencephalus.
(§2) Seeding. Mesencephalons are grouped in a flask containing 2 mL of L15 medium and then mechanically dissociated (30 repeat operations), 5 mL of L15 medium are added. The suspension is allowed to stand for 8 minutes. The 5 mL float is then recovered in a new flask and the cells are dissociated again (30 repeat operations). 5 mL of L15 is added again and the suspension is left to stand for 8 minutes. The 5 mL float is added to the previous float. The cells thus extracted are then centrifuged for 5 minutes at 1000 rpm^−1. The cell sediment is dissolved in a Neurobasal medium supplemented with 1% of B27, 1% of glutamine and 1% of a mixture of penicillin and streptomycin. The cells are then seeded at an appropriate dilution (0.6 embryos per well in 24-well plates and 0.4 per well in 48-well plates). The cultures are incubated at 37° C. in a wet atmosphere enriched with 5% CO2 in 24-well or 48-well plates.
(§3) Treatment. After 24 hours, two-thirds of the medium in each well is replaced by a new medium enriched with the product to be tested at the appropriate dilution. The medium is replaced in the same way after 4 days of culture.
(§4) Immunohistochemistry. After 8 days culture, the cells are fixed by a solution of 4% formaldehyde and then washed three times with PBS. The cells are then submitted to anti-tyrosine hydroxylase (TH) immunohistochemistry, developed by a secondary antibody coupled to a fluorophore emitting in the red (Cy3).
(§5) Analyses. Neuroprotection is evaluated by counting positive TH neurons with 10 fields per well directly under an inverted fluorescence microscope, reported as a percentage of the untreated control. Experiments are done on three wells per condition. Three independent experiments are done under these conditions. The total neuritic length per cell is calculated using Explora Nova's Neurite Outgrowth software on 60 to 100 neurons photographed independently per condition.
(§6) Primary cultures of ventral mesencephalon of rat embryos after 15.5 days of gestation under conditions causing spontaneous death of dopaminergic neurons, are maintained in the presence or absence of the compounds to be tested for 8 days. After fixing, the cultures are submitted to immunocytochemistry directed against tyrosine hydroxylase, a specific marker of dopaminergic neurons.
The neuroprotective potential of each compound is then estimated by counting the number of remaining neurons (TH^+ neurons) under a fluorescence microscope. The results for the different treatments are expressed as a percentage of the number of neurons remaining relative to untreated cultures (Control).
(§7) All experiments were done by comparison with a positive control, dibutyryl-AMP cyclic (db-AMPc) (Mourlevat S. et al. Mol. Pharmacol. 2003, 64 (3), 578-586).

[2] = system: dopaminergic neurons (TH+ neurons) in primary cultures of ventral mesencephalon; assay: Neuritogenesis: total neuritic length per dopaminergic neuron in primary cultures of ventral mesencephalon; type: cell-based; settings: Product 10 nM, 8 days culture, rat embryo ventral mesencephalon; untreated control = 100
Method: as §1, §2, §3, §4, §5, §6
Neuritogenesis is quantified by measuring the total neuritic length per dopaminergic neuron (neuritic length/TH^+ neuron) using an image analyser on a minimum of sixty photographed neurons per condition (10-30% of all dopaminergic neurons).
as §7

[3] = system: reactive oxygen species (ROS) in neurones of ventral mesencephalon cultures; assay: Cellular test with dihydrorhodamine 123 (DHR-123); type: cell-based, rat; settings: compounds 10 nM for eight days, 50 μM DHR-123 30 minutes; control = 100; Trolox at 10 μM per FIG. 1
Method: Dihydrorhodamine 123 or DHR123 is used as an indicator of reactive oxygen species (ROS). It is uncharged and not fluorescent and passes passively through the cellular membrane before being oxidised in contact with free radicals, into rhodamine 123 emitting green fluorescence.
The quantity of intracellular ROS is reduced when the cells are treated by an anti-oxidant. This reduction results in a quantifiable decay in emitted fluorescence in the presence of DHR123.
In order to conclude the role of the anti-oxidant capacity of compounds according to the invention in the observed neuroprotectrive activity, the cultures were placed strictly under the same conditions as for the neuroprotection/neuritogenesis test. Thus, the cultures were kept for eight days in the presence of a concentration of 10 nM of each of the tested tryptaminic derivatives. On the 8th day in vitro (DIV 8), 50 μM of DHR-123 (Sigma) was added and the cells were incubated for 30 minutes at 37° C. They were then washed three times, treated once again by compounds according to the invention and placed in a medium without any phenol red. Living fluorescent neurones that were immediately photographed can be observed, the fluorescence density per neurone being quantified under an inverted fluorescence microscope by an image analysis software.

[4] = Test with ABTS (anti-oxidant capacity, hydroxyl radicals generated by Fenton's reaction); type: biochemical; settings: 30 minutes at ambient temperature, range 10 nM to 1 mM, read-out: IC50 ± SEM (concentration at which 50% of hydroxyl radicals have been reduced) (converted)
Text: ABTS or 2,2′-azino-bis-(3-ethylbenzthiazoline-6-sulfonic) acid is a coloured indicator of the presence of hydroxyl radicals in solution. The attack of a hydroxyl radical on ABTS generates the formation of an ATBS^+. cation radical (Equation 1). This coloured entity makes the absorbance (Abs) of the solution equal to 450 nm. ABTS+HO. ? ABTS^+. +HO^− Equation 1
During the test, hydroxyl radicals are generated by Fenton's reaction in the presence of iron and hydrogen peroxide (Equation 2) H2O2+Fe^2+ ? HO. +HO^−+Fe^3+ Equation 2
When a radical trap or antioxidant is present in solution, competition with ABTS is set up for reduction of hydroxyl radicals, which reduces the absorbance (Abs) at 450 nm.
The percentage of hydroxyl radicals converted into hydroxyl ions (% conversion) by the compound of interest may be calculated using Formula 1: […]
The anti-oxidant capacity of a compound may then be expressed in the form of IC50 that reflects the concentration at which 50% of hydroxyl radicals have been reduced by the tested compound.
Thus, the compounds to be tested and Trolox® were solubilised in ethanol so as to obtain solutions at 1 mM. We used cascade dilutions to obtain a concentration range varying from 1 mM to 10 nM. 90 μL of a 1:1 water-ethanol mixture was then added onto an ELISA 96-well plate, followed by 15 μL of an aqueous solution of ABTS at 1 mM, 15 μL of an aqueous solution of Fe2SO4 at 0.5 mM, 15 μL of each compound to be tested at different concentrations, and then 15 μl of an aqueous solution of hydrogen peroxide at 100 mM. The mixtures thus obtained were stirred at ambient temperature sheltered from air for 30 minutes, and the value of the absorbance at […] was then measured. The capacity of each compound to reduce hydroxyl radicals is determined by the reduction in absorbance at 450 nm, the control solution being composed of pure ethanol. Therefore, the ABTS test was made in comparison with Trolox®. The same ranges from 10 nm to 1 mM of indoles 1a, 1c, 1g, 1i, 2a, 4c, 2g, 2h and 2i were tested.

SMILES | TH+ neurons, % relative to control ± SEM [1] | Neuritic length/TH+ neuron, % relative to control ± SEM [2] | IF/neurone (%) (fluorescence intensity per neurone) [3] | IC50 [4]
CCCCCCCCCCCCCCCC(=O)NCCc1c[nH]c2ccccc12 [Compound 1c, N-(2-(1H-indol-3-yl)ethyl)hexadecanamide] | 121.3 ± 3.2 % | 168.6 ± 11.5 % | 55.9 ± 3.0 % | –
CCCCCCCCCCCCCCCCCCCC(=O)NCCc1c[nH]c2ccccc12 [Compound 1f, N-(2-(1H-indol-3-yl)ethyl)icosanamide] | 121.8 ± 2.0 % | 147.4 ± 7.0 % | – | –
O=C(CCCCCCCCCCCCCCO)NCCc1c[nH]c2ccccc12 [Compound 1i, N-(2-(1H-indol-3-yl)ethyl)-15-hydroxypentadecanamide] | – | – | 56.5 ± 2.7 % | –
CCCCCCCCCCCCCNCCc1c[nH]c2ccccc12 [Compound 2a, N-(2-(1H-indol-3-yl)ethyl)tridecan-1-amine] | – | – | – | 810 ± 140 µM
CCCCCCCCCCCCCCCCCCNCCc1c[nH]c2ccccc12 [Compound 2e, N-(2-(1H-indol-3-yl)ethyl)octadecan-1-amine] | 129.9 ± 3.5 % | 157.3 ± 10.3 % | – | –
CCCCCCCCCCCCCCCCCCCCNCCc1c[nH]c2ccccc12 [Compound 2f] | 128.9 ± 3.4 % | 132.6 ± 6.2 % | – | –
CCCCCCCCCCCCCCCCCCCCCCCNCCc1c[nH]c2ccccc12 [Compound 2g, N-(2-(1 H-indol-3-yl)ethyl)tricosan-1-amine] | 129.6 ± 3.5 % | 141.2 ± 5.0 % | – | 670 µM
OCCCCCCCCCCCCCCCNCCc1c[nH]c2ccccc12 [Compound 2i, N-(2-(1H-indol-3-yl)ethyl)-15-hydroxypentadecanamine] | 129.4 ± 5.0 % | 160.8 ± 13.8 % | 44.0 ± 3.6 % | 730 ± 10 µM
Cc1c(C)c2c(c(C)c1O)CCC(C)(C(=O)O)O2 (stereo not shown) [Trolox ®, reference compound] | – | – | 44.0 ± 2.8 % | 550 ± 20 µM
CCCC(=O)Nc1ncnc2c1ncn2[C@@H]1O[C@@H]2COP(=O)(O)O[C@H]2[C@H]1OC(=O)CCC [db-AMPc, dibutyryl-AMP cyclic, reference compound] | 149.9 ± 3.6% | 333.1 ± 8.7 % | – | –
